Data taken from patent US10689383B2, “Optionally fused heterocyclyl-substituted derivatives of pyrimidine useful for the treatment of inflammatory, metabolic, oncologic and autoimmune diseases” (NUEVOLUTION A/S, priority 2014, dated 2020).
Like-named read-outs stand apart in the source and are kept apart here.

Target: T1, human RORγt (Ligand Binding Domain) (Homo sapiens, UniProt P51449)
T1 construct: purchased Crelux (Planegg, Germany) batch no PC5032-1
T1 sequence (P51449 269-508 limits assumed): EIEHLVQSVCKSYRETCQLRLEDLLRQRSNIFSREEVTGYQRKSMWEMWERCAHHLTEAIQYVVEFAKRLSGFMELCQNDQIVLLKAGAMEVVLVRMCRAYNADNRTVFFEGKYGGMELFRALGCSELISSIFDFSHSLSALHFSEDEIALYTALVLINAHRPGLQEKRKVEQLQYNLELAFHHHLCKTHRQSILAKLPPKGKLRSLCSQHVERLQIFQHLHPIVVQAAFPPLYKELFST
Test: Fluorescence Polarization (FP) Assay
Description: The activity of the compounds was evaluated using a Fluorescence Polarization (FP) Assay and, in most cases, a Th17 Assay and/or RORγ Reporter assay (also referred to as Gal4 assay). The FP assay is an in vitro assay monitoring binding within the ligand binding pocket. The RORγ and the Th17 assays are both cell-based assays monitoring functional activity of the compound assayed.
The total volume was 25 μl, in a black Perkin Elmer OptiPlate. As negative control, 1 μl DMSO was used. […] The probe is a fluorescently labeled (TAMRA) RORγt ligand identified by Nuevolution with a total molecular weight of 910 g/mole as shown in Graph A in FIG. 1.

[1] = Fluorescence Polarization (FP) Assay, values given as upper bounds of activity ranges, read-out: FP activity range

Row | Structure (SMILES) | IC50 [1] [µM] | IC50 [µM]
1 | O=C1CCCN1c1ccc(CNc2ncnc(N3CCCC3c3ccc(C(F)(F)F)cc3)c2F)cc1 (stereo not drawn) [Example 137, 1-[4-[[[5-fluoro-6-[2-[4-(trifluoromethyl)phenyl]pyrrolidin-1-yl]pyrimidin-4-yl]amino]methyl]phenyl]pyrrolidin-2-one] | < 10 | 
2 | COC1CC(c2ccc(C(F)(F)F)cc2)N(c2ncnc(NCc3ccc(C)nc3)c2F)C1 (stereo not drawn) [Example 212, 5-fluoro-6-[4-methoxy-2-[4-(trifluoromethyl)phenyl]pyrrolidin-1-yl]-N-[(6-methyl-3-pyridyl)methyl]pyrimidin-4-amine] | < 10 | 
3 | CN(C)C(=O)C1(CNc2ncnc(N3CCOC[C@@H]3c3ccc(C(F)(F)F)cc3)c2F)CCCC1 [Example 250, 1-[[[5-fluoro-6-[(3S)-3-[4-(trifluoromethyl)phenyl]morpholin-4-yl]pyrimidin-4-yl]amino]methyl]-N,N-dimethyl-cyclopentanecarboxamide] | < 10 | 
4 | Cc1nnc(C2CCCN2c2ncnc(NCc3ccc(CC(N)=O)cc3)c2F)o1 (stereo not drawn) [Example 315, 2-[4-[[[5-fluoro-6-[2-(5-methyl-1,3,4-oxadiazol-2-yl)pyrrolidin-1-yl]pyrimidin-4-yl]amino]methyl]phenyl]acetamide] | < 10 | 
5 | O=C(c1ccc(CNc2ncnc(N3CCCC3c3ccc(C(F)(F)F)cc3)c2F)cc1)N1CCOCC1 (stereo not drawn) [Example 57, [4-[[[5-fluoro-6-[2-[4-(trifluoromethyl)phenyl]pyrrolidin-1-yl]pyrimidin-4-yl]amino]methyl]phenyl]-morpholino-methanone] | < 10 | 
6 | CS(=O)(=O)c1ccc(CNc2ncnc(N3CCC[C@@H]3c3ccc(C(F)(F)F)cc3)c2F)cc1 [Example 219, 5-fluoro-N-[(4-methylsulfonylphenyl)methyl]-6-[(2R)-2-[4-(trifluoromethyl)phenyl]pyrrolidin-1-yl]pyrimidin-4-amine] | < 10 | 
7 | Oc1cc(CNc2ncnc(N3CCCC3c3ccc(C(F)(F)F)cc3)c2F)on1 (stereo not drawn) [Example 216, 5-[[[5-fluoro-6-[2-[4-(trifluoromethyl)phenyl]pyrrolidin-1-yl]pyrimidin-4-yl]amino]methyl]isoxazol-3-ol] |  | < 10
8 | Cc1cccc(CNc2ncnc(N3CCCC3c3ccc(C(F)(F)F)cc3)c2F)n1 (stereo not drawn) [Example 132, 5-fluoro-N-[(6-methyl-2-pyridyl)methyl]-6-[2-[4-(trifluoromethyl)phenyl]pyrrolidin-1-yl]pyrimidin-4-amine] | < 10 | 
9 | OCC1CCN(c2ccc(CNc3ncnc(N4CCCC4c4ccc(C(F)(F)F)cc4)c3F)cn2)CC1 (stereo not drawn) [Example 58, [1-[5-[[[5-fluoro-6-[2-[4-(trifluoromethyl)phenyl]pyrrolidin-1-yl]pyrimidin-4-yl]amino]methyl]-2-pyridyl]-4-piperidyl]methanol] | < 10 | 
10 | NCCNC(=O)C1(CNc2ncnc(N3CCOC[C@@H]3c3ccc(C(F)(F)F)cc3)c2F)CCOCC1 [Example 256, N-(2-aminoethyl)-4-[[[5-fluoro-6-[(3S)-3-[4-(trifluoromethyl)phenyl]morpholin-4-yl]pyrimidin-4-yl]amino]methyl]tetrahydropyran-4-carboxamide] | < 10 | 
11 | CS(=O)(=O)NC1CCCC1CNc1ncnc(N2CCOC[C@@H]2c2ccc(C(F)(F)F)cc2)c1F (stereo partly drawn) [Example 251, N-[2-[[[5-fluoro-6-[(3S)-3-[4-(trifluoromethyl)phenyl]morpholin-4-yl]pyrimidin-4-yl]amino]methyl]cyclopentyl] methanesulfonamide] | < 10 | 
12 | OCC1(CNc2ncnc(N3CCOC[C@@H]3c3ccc(C(F)(F)F)cc3)c2F)CC1 [Example 296, [1-[[[5-fluoro-6-[(3S)-3-[4-(trifluoromethyl)phenyl]morpholin-4-yl]pyrimidin-4-yl]amino]methyl]cyclopropyl] methanol] | < 10 | 
13 | Cn1ccc(CNc2ncnc(N3CCCC3c3ccc(C(F)(F)F)cc3)c2F)c1 (stereo not drawn) [Example 105, 5-fluoro-N-[(1-methylpyrrol-3-yl)methyl]-6-[2-[4-(trifluoromethyl)phenyl]pyrrolidin-1-yl]pyrimidin-4-amine] | < 10 | 
14 | [O-][n+]1cccc(CNc2ncnc(N3CCC[C@@H]3c3ccc(C(F)(F)F)cc3)c2F)c1 [Example 193, 5-fluoro-N-[(1-oxidopyridin-1-ium-3-yl)methyl]-6-[(2R)-2[4-(trifluoromethyl)phenyl]pyrrolidin-1-yl]pyrimidin-4-amine] | < 10 | 
15 | O=C1Cc2cc(CNc3ncnc(N4CCCC4c4ccc(C(F)(F)F)cc4)c3F)ccc2N1 (stereo not drawn) [Example 122, 5-[[[5-fluoro-6-[2-[4-(trifluoromethyl)phenyl]pyrrolidin-1-yl]pyrimidin-4-yl]amino]methyl]indolin-2-one] | < 10 | 
16 | Fc1c(NCc2cccc(Cn3cncn3)c2)ncnc1N1CCCC1c1ccc(C(F)(F)F)cc1 (stereo not drawn) [Example 146, 5-fluoro-N-[[3-(1,2,4-triazol-1-ylmethyl)phenyl]methyl]-6-[2-[4-(trifluoromethyl)phenyl]pyrrolidin-1-yl]pyrimidin-4-amine] | < 2 | 
17 | O=C(O)c1ccc(CNc2ncnc(N3CCCC3c3ccc(C(F)(F)F)cc3)c2F)cc1 (stereo not drawn) [Example 44, 4-[[[5-fluoro-6-[2-[4-(trifluoromethyl)phenyl]pyrrolidin-1-yl]pyrimidin-4-yl]amino]methyl]benzoic acid] | < 10 | 
18 | O=C(O)c1ccc(CCNc2ncnc(N3CCCC3c3ccc(C(F)(F)F)cc3)c2F)cc1 (stereo not drawn) [Example 120, 4-[2-[[5-fluoro-6-[2-[4-(trifluoromethyl)phenyl]pyrrolidin-1-yl]pyrimidin-4-yl]amino]ethyl]benzoic acid] | < 10 | 

Now from value to compound, other results behind:

Row | IC50 [1] [µM] | Structure (SMILES) | IC50 [µM]
19 | < 2 | NC(=O)Cc1ccc(CNc2ncnc(N3C[C@H](F)C[C@H]3c3ccc(C(F)(F)F)cc3)c2F)cc1 (racemic) [Example 242, 2-[4-[[[5-fluoro-6-[(2S,4R)-4-fluoro-2-[4-(trifluoromethyl)phenyl]pyrrolidin-1-yl]pyrimidin-4-yl]amino]methyl]phenyl]acetamide AND 2-[4-[[[5-fluoro-6-[(2R,4S)-4-fluoro-2-[4-(trifluoromethyl)phenyl]pyrrolidin-1-yl]pyrimidin-4-yl]amino]methyl]phenyl]acetamide] | 
20 | < 1 | CC1CC(c2ccc(C(F)(F)F)cc2)N(c2ncnc(N[C@H](Cc3ccc(F)cc3)C(N)=O)c2F)C1 (stereo partly drawn) [Example 37, (2R)-2-[[5-fluoro-6-[4-methyl-2-[4-(trifluoromethyl)phenyl]pyrrolidin-1-yl]pyrimidin-4-yl]amino]-3-(4-fluorophenyl)propanamide] | 
21 | < 2 | COCc1cccc(CNc2ncnc(N3CCCC3c3ccc(C(F)(F)F)cc3)c2F)c1 (stereo not drawn) [Example 147, 5-fluoro-N-[[3-(methoxymethyl)phenyl]methyl]-6-[2-[4-(trifluoromethyl)phenyl]pyrrolidin-1-yl]pyrimidin-4-amine] | 
22 | < 0.5 | NC(=O)Cc1ccc(CNc2ncnc(N3CCCC3c3cccc4ccccc34)c2F)cc1 (stereo not drawn) [Example 311, 2-[4-[[[5-fluoro-6-[2-(1-naphthyl)pyrrolidin-1-yl]pyrimidin-4-yl]amino]methyl]phenyl] acetamide] | 
23 | < 0.5 | CC1(C)CCC(CNc2ncnc(N3CCC[C@@H]3c3ccc(C(F)(F)F)cc3)c2F)CC1 [Example 166, N-[(4,4-dimethylcyclohexyl)methyl]-5-fluoro-6-[(2R)-2-[4-(trifluoromethyl)phenyl]pyrrolidin-1-yl]pyrimidin-4-amine] | 
24 | < 2 | CC(CC1CCOCC1)Nc1ncnc(N2CCCC2c2ccc(C(F)(F)F)cc2)c1F (stereo not drawn) [Example 41, 5-fluoro-N-(1-methyl-2-tetrahydropyran-4-yl-ethyl)-6-[2-[4-(trifluoromethyl)phenyl]pyrrolidin-1-yl]pyrimidin-4-amine] | 
25 | < 0.5 | CCC(C(=O)NCc1ccoc1C(N)=O)n1ccc2c(N3CCCC3c3ccc(-c4ccccc4)cc3)ncnc21 (stereo not drawn) [Example 4, 3-[[2-[4-[2-(4-phenylphenyl)pyrrolidin-1-yl]pyrrolo[2,3-d]pyrimidin-7-yl]butanoylamino]methyl]furan-2-carboxamide] | 
26 | < 0.5 | O=C(O)C[C@H]1CC[C@H](CNc2ncnc(N3CCOC[C@@H]3c3ccc(OC(F)(F)F)cc3)c2F)CC1 [Example 243, 2-[4-[[[5-fluoro-6-[(3S)-3-[4-(trifluoromethoxy)phenyl]morpholin-4-yl]pyrimidin-4-yl]amino]methyl]cyclohexyl]acetic acid] | 
27 | < 2 | Fc1c(NCc2cccnc2)ncnc1N1CCCC1c1ccc(C(F)(F)F)cc1 (stereo not drawn) [Example 141, 5-fluoro-N-(3-pyridylmethyl)-6-[2-[4-(trifluoromethyl)phenyl]pyrrolidin-1-yl]pyrimidin-4-amine] | 
28 | < 0.5 | NC(=O)[C@@H](Cc1cc(F)c(F)cc1F)Nc1ncnc(N2CCCC2c2nc3ccccc3s2)c1F (stereo partly drawn) [Example 9, (2R)-2-[[6-[2-(1,3-benzothiazo1-2-yl)pyrrolidin-1-yl]-5-fluoro-pyrimidin-4-yl]amino]-3-(2,4,5-trifluorophenyl)propanamide] | 
29 | < 0.5 | O=C(O)Cc1ccc(CNc2ncnc(N3CCCC3c3ccc(C(F)(F)F)cc3)c2F)cc1 (stereo not drawn) [Example 32, 2-[4-[[[5-fluoro-6-[2-[4-(trifluoromethyl)phenyl]pyrrolidin-1-yl]pyrimidin-4-yl]amino]methyl]phenyl]acetic acid] | 
30 | < 0.5 | Fc1c(NCC2CCOC2)ncnc1N1CCC[C@@H]1c1ccc(C(F)(F)F)cc1 (stereo partly drawn) [Example 154, 5-fluoro-N-(tetrahydrofuran-3-ylmethyl)-6-[(2R)-2-[4-(trifluoromethyl)phenyl]pyrrolidin-1-yl]pyrimidin-4-amine] | 
